Assays:
Assay in all cases: relative viability (nuclei count vs DMSO), 5 days (fraction); higher = more cells survive
HCC-44 = system: HCC-44
Procedure, shortened: (§1)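 Medians of duplicate plates are given as relative viability. That measure is the nuclei count in treated wells divided by the count in vehicle wells. Counts were taken on 4× images of lung cancer cell lines in 1536-well plates, 5 days after pin-tool dosing the day after seeding with one drug alone or a fixed anchor-drug dose plus five library-drug doses (not always all listed) in √10 steps.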

LCLC-97TM1 = system: LCLC-97TM1
Procedure, shortened: as §1

LCLC-103H = system: LCLC-103H
Procedure, shortened: as §1

NCI-H3122 = system: NCI-H3122
Procedure, shortened: as §1

NCI-H727 = system: NCI-H727
Procedure, shortened: as §1

NCI-H647 = system: NCI-H647
Procedure, shortened: as §1

RERF-LC-KJ = system: RERF-LC-KJ
Procedure, shortened: as §1

CAL-12T = system: CAL-12T
Procedure, shortened: as §1

NCI-H1650 = system: NCI-H1650
Procedure, shortened: as §1

SK-LU-1 = system: SK-LU-1
Procedure, shortened: as §1

NCI-H2228 = system: NCI-H2228
Procedure, shortened: as §1

NCI-H2405 = system: NCI-H2405
Procedure, shortened: as §1

BEN = system: BEN
Procedure, shortened: as §1

NCI-H1437 = system: NCI-H1437
Procedure, shortened: as §1

NCI-H2087 = system: NCI-H2087
Procedure, shortened: as §1

NCI-H1944 = system: NCI-H1944
Procedure, shortened: as §1

201T = system: 201T
Procedure, shortened: as §1

NCI-H1793 = system: NCI-H1793
Procedure, shortened: as §1

NCI-H1395 = system: NCI-H1395
Procedure, shortened: as §1

HOP-62 = system: HOP-62
Procedure, shortened: as §1

HCC-827 = system: HCC-827
Procedure, shortened: as §1

LXF-289 = system: LXF-289
Procedure, shortened: as §1

NCI-H322M = system: NCI-H322M
Procedure, shortened: as §1

NC(=O)Nc1cc(-c2cccc(F)c2)sc1C(=O)N[C@H]1CCCNC1 [AZD7762] + COc1cccc2cc(-c3nc([C@H]4CC[C@H](C(=O)O)CC4)n4ncnc(N)c34)[nH]c12 [OSI-027] (partner 0.5 µM)
relative viability (HCC-44; first compound 0.01 µM): 0.718
relative viability (HCC-44; first compound 0.03162 µM): 0.579
relative viability (HCC-44; first compound 0.1 µM): 0.712
relative viability (HCC-44; first compound 0.3162 µM): 0.65
relative viability (HCC-44; first compound 1 µM): 0.491
relative viability (LCLC-97TM1; first compound 0.01 µM): 0.582
relative viability (LCLC-97TM1; first compound 0.03162 µM): 0.577
relative viability (LCLC-97TM1; first compound 0.1 µM): 0.511
relative viability (LCLC-97TM1; first compound 0.3162 µM): 0.617
relative viability (LCLC-97TM1; first compound 1 µM): 0.44
relative viability (LCLC-103H; first compound 0.01 µM): 0.451
relative viability (LCLC-103H; first compound 0.03162 µM): 0.471
relative viability (LCLC-103H; first compound 0.1 µM): 0.427
relative viability (LCLC-103H; first compound 0.3162 µM): 0.392
relative viability (LCLC-103H; first compound 1 µM): 0.341
relative viability (NCI-H3122; first compound 0.01 µM): 1.03
relative viability (NCI-H3122; first compound 0.03162 µM): 1.1
relative viability (NCI-H3122; first compound 0.1 µM): 0.995
relative viability (NCI-H3122; first compound 0.3162 µM): 0.473
relative viability (NCI-H3122; first compound 1 µM): 0.259
relative viability (NCI-H727; first compound 0.01 µM): 0.649
relative viability (NCI-H727; first compound 0.03162 µM): 0.791
relative viability (NCI-H727; first compound 0.1 µM): 0.425
relative viability (NCI-H727; first compound 0.3162 µM): 0.52
relative viability (NCI-H727; first compound 1 µM): 0.358
relative viability (NCI-H647; first compound 0.01 µM): 0.656
relative viability (NCI-H647; first compound 0.03162 µM): 0.55
relative viability (NCI-H647; first compound 0.1 µM): 0.714
relative viability (NCI-H647; first compound 0.3162 µM): 0.6
relative viability (NCI-H647; first compound 1 µM): 0.172
relative viability (RERF-LC-KJ; first compound 0.01 µM): 0.587
relative viability (RERF-LC-KJ; first compound 0.03162 µM): 0.668
relative viability (RERF-LC-KJ; first compound 0.1 µM): 0.77
relative viability (RERF-LC-KJ; first compound 0.3162 µM): 0.666
relative viability (RERF-LC-KJ; first compound 1 µM): 0.499
relative viability (CAL-12T; first compound 0.01 µM): 0.676
relative viability (CAL-12T; first compound 0.03162 µM): 0.73
relative viability (CAL-12T; first compound 0.1 µM): 0.768
relative viability (CAL-12T; first compound 0.3162 µM): 0.487
relative viability (CAL-12T; first compound 1 µM): 0.124
relative viability (NCI-H1650; first compound 0.01 µM): 0.688
relative viability (NCI-H1650; first compound 0.03162 µM): 0.638
relative viability (NCI-H1650; first compound 0.1 µM): 0.708
relative viability (NCI-H1650; first compound 0.3162 µM): 0.425
relative viability (NCI-H1650; first compound 1 µM): 0.206
relative viability (SK-LU-1; first compound 0.01 µM): 0.35
relative viability (SK-LU-1; first compound 0.03162 µM): 0.384
relative viability (SK-LU-1; first compound 0.1 µM): 0.203
relative viability (SK-LU-1; first compound 0.3162 µM): 0.136
relative viability (SK-LU-1; first compound 1 µM): 0.157
relative viability (NCI-H2228; first compound 0.01 µM): 0.513
relative viability (NCI-H2228; first compound 0.03162 µM): 0.847
relative viability (NCI-H2228; first compound 0.1 µM): 0.492
relative viability (NCI-H2228; first compound 0.3162 µM): 0.302
relative viability (NCI-H2228; first compound 1 µM): 0.152
relative viability (NCI-H2405; first compound 0.01 µM): 0.608
relative viability (NCI-H2405; first compound 0.03162 µM): 0.676
relative viability (NCI-H2405; first compound 0.1 µM): 0.623
relative viability (NCI-H2405; first compound 0.3162 µM): 0.664
relative viability (NCI-H2405; first compound 1 µM): 0.455
relative viability (BEN; first compound 0.01 µM): 0.284
relative viability (BEN; first compound 0.03162 µM): 0.297
relative viability (BEN; first compound 0.1 µM): 0.305
relative viability (BEN; first compound 0.3162 µM): 0.287
relative viability (BEN; first compound 1 µM): 0.246
relative viability (NCI-H1437; first compound 0.01 µM): 0.888
relative viability (NCI-H1437; first compound 0.03162 µM): 0.833
relative viability (NCI-H1437; first compound 0.1 µM): 0.974
relative viability (NCI-H1437; first compound 0.3162 µM): 0.87
relative viability (NCI-H1437; first compound 1 µM): 0.695
relative viability (NCI-H2087; first compound 0.01 µM): 0.474
relative viability (NCI-H2087; first compound 0.03162 µM): 0.653
relative viability (NCI-H2087; first compound 0.1 µM): 0.681
relative viability (NCI-H2087; first compound 0.3162 µM): 0.883
relative viability (NCI-H2087; first compound 1 µM): 0.779
relative viability (NCI-H1944; first compound 0.01 µM): 0.396
relative viability (NCI-H1944; first compound 0.03162 µM): 0.467
relative viability (NCI-H1944; first compound 0.1 µM): 0.53
relative viability (NCI-H1944; first compound 0.3162 µM): 0.525
relative viability (NCI-H1944; first compound 1 µM): 0.299
relative viability (201T; first compound 0.01 µM): 0.795
relative viability (201T; first compound 0.03162 µM): 0.779
relative viability (201T; first compound 0.1 µM): 0.703
relative viability (201T; first compound 0.3162 µM): 0.423
relative viability (201T; first compound 1 µM): 0.254
relative viability (NCI-H1793; first compound 0.01 µM): 0.265
relative viability (NCI-H1793; first compound 0.03162 µM): 0.268
relative viability (NCI-H1793; first compound 0.1 µM): 0.308
relative viability (NCI-H1793; first compound 0.3162 µM): 0.299
relative viability (NCI-H1793; first compound 1 µM): 0.25
relative viability (NCI-H1395; first compound 0.01 µM): 0.727
relative viability (NCI-H1395; first compound 0.03162 µM): 0.74
relative viability (NCI-H1395; first compound 0.1 µM): 0.708
relative viability (NCI-H1395; first compound 0.3162 µM): 0.458
relative viability (NCI-H1395; first compound 1 µM): 0.363
relative viability (HOP-62; first compound 0.01 µM): 0.759
relative viability (HOP-62; first compound 0.03162 µM): 0.89
relative viability (HOP-62; first compound 0.1 µM): 0.743
relative viability (HOP-62; first compound 0.3162 µM): 0.71
relative viability (HOP-62; first compound 1 µM): 0.552
relative viability (HCC-827; first compound 0.01 µM): 0.787
relative viability (HCC-827; first compound 0.03162 µM): 0.802
relative viability (HCC-827; first compound 0.1 µM): 0.863
relative viability (HCC-827; first compound 0.3162 µM): 0.875
relative viability (HCC-827; first compound 1 µM): 0.537
relative viability (LXF-289; first compound 0.01 µM): 0.61
relative viability (LXF-289; first compound 0.03162 µM): 0.835
relative viability (LXF-289; first compound 0.1 µM): 0.886
relative viability (LXF-289; first compound 0.3162 µM): 0.864
relative viability (LXF-289; first compound 1 µM): 0.971
relative viability (NCI-H322M; first compound 0.01 µM): 0.555
relative viability (NCI-H322M; first compound 0.03162 µM): 0.581
relative viability (NCI-H322M; first compound 0.1 µM): 0.562
relative viability (NCI-H322M; first compound 0.3162 µM): 0.254
relative viability (NCI-H322M; first compound 1 µM): 0.255

Source: the supplement of paper PMC10307832
